# Patent publication US7141604B2, “Citalopram for the treatment of elevated blood pressure” (Egis Gyógyszergyár Rt., priority 2002, dated 2006)
# Read-outs that look alike come from different tables or passages of the source.
# Tests used:
# hypertensive patients = test: Study III: patients with high blood pressure but without anxiety or depression; assay type: in vivo; conditions: for outcome in 55 non-responder patients, antihypertensive added to citalopram 20 mg/day: after six weeks, betaloc oral 100 mg/day (40 patients) or captopril 2×12.5 mg/day (15 patients) in addition to citalopram
# Description: In the test 102 hypertensive patients participated who complained of the following symptoms: attack like headache, dizziness, trembling, tremor, sweating, fear of death, sensation of heat and cold, and gastrointestinal complaints. The patients thought that their complaints were the consequence of panic attacks, but this was not supported by their psychiatric anamnesis in an unambiguous manner.
# The patients were orally treated with citalopram in a dose of 5 mg/day on the first week, 10 mg/day on the second week and 20 mg/day on the third week.
# From the 55 non-responder patients 40 individuals (39%) received betaloc in an oral dose of 100 mg/day and 15 patients (15%) received captopril in a dose of 2×12.5 mg/day, in addition to the administration of 20 mg/day of citalopram.
# hypertonic patients = test: Study I: antihypertensive effect of citalopram in hypertonic patients with panic disorder; assay type: in vivo; conditions: for outcome in remaining 84 patients, antihypertensive added to citalopram 20 mg/day: after 6 weeks, oral metoprolol 2×50 mg/day (64 patients) or captopril 2×12.5 mg/day (20 patients) in addition to citalopram
# Description: 254 patients participated in the study. All patients were hypertonic. In this group of hypertonics there were 120 patients suffering from panic disorder and agoraphobia, 70 patients suffering from panic disorder with agoraphobia and with depression, and 64 patients suffering from panic disorder with agoraphobia and with social phobia and/or with obsessive compulsive disorder (OCD).
# The patients received citalopram in a dose of 5 mg/day on the first week, 10 mg/day on the second week and 20 mg/day on the third and fourth week.
# The citalopram treatment of the remaining 84 patients was continued with a weekly oral dosage of 20 mg/day. From said 84 individuals 64 patients were additionally treated orally with metoprolol for 3 weeks in a dose of 2×50 mg/day and 20 patients received captopril in a dose of 2×12.5 mg/day.
# [1] = in the course of treatment of depression; cited from earlier work
# [2] = system: patients having unstable high blood pressure; conditions: human, in vivo, po
# Description: In the study 13 patients having unstable high blood pressure were used who suffered from different anxiety disorders and depression.
# Out of these patients 3 suffered from panic disorder, 1 from obsessive compulsive disorder and 9 from panic disorder with depression. On the beginning of treatment with the following antidepressants the patients were normotensive.
# The patients were treated orally with 40 mg/day of paroxetine, or 100 mg/day of sertraline, or 20 mg/day of fluoxetine, or 150 mg/day of fluvoxamine. After 6 months 60% of the patients and after a period of 12–30 months 40% of the patients became hypertensive beside the normalization of their psychiatric state.
# Thereafter the above mentioned antidepressants were substituted with citalopram. The oral dose of citalopram was 5 mg/day on the first week, 10 mg/day on the second week and 20 mg/day on the third week.
# [3] = after three weeks, oral citalopram 5/10/20 mg/day, of 102 hypertensive patients
# [4] = after 4 weeks treatment, citalopram 5/10/20/20 mg/day, of 254 hypertonic patients
structure (smiles),measurement,setting,value
COCCc1ccc(OCC(O)CNC(C)C)cc1 (centres unmarked) [betaloc],"outcome in 55 non-responder patients, antihypertensive added to citalopram 20 mg/day",hypertensive patients,complete recovery
C[C@H](CS)C(=O)N1CCC[C@H]1C(=O)O [captopril],"outcome in 55 non-responder patients, antihypertensive added to citalopram 20 mg/day",hypertensive patients,complete recovery
same,"outcome in remaining 84 patients, antihypertensive added to citalopram 20 mg/day",hypertonic patients,complete recovery
"CN(C)CCCC1(c2ccc(F)cc2)OCc2cc(C#N)ccc21 (centres unmarked) [citalopram, 1-(3-dimethylamino-propyl)-1-(4-fluoro-phenyl)-1,3-dihydro-5-isobenzofurance-carbonitrile]",undesired side effect given in information leaflet,[1],hypotension may occur
same,patients recovered and became normotensive,hypertensive patients; [3],47 patients
same,share of patients recovered and became normotensive,hypertensive patients; [3],46%
same,"patients with complete recovery (became normotensive, symptoms of anxiety and affective disorders disappeared)",hypertonic patients; [4],170 patients
same,share of patients with complete recovery (became normotensive),hypertonic patients; [4],67%
CNCCC(Oc1ccc(C(F)(F)F)cc1)c1ccccc1 (centres unmarked) [fluoxetine],patients who became hypertensive,[2],40%
same,patients who became hypertensive,[2]; 6 months,60%
COCCCC/C(=N\OCCN)c1ccc(C(F)(F)F)cc1 [fluvoxamine],patients who became hypertensive,[2],40%
same,patients who became hypertensive,[2]; 6 months,60%
COCCc1ccc(OCC(O)CNC(C)C)cc1 (centres unmarked) [metoprolol],"outcome in remaining 84 patients, antihypertensive added to citalopram 20 mg/day",hypertonic patients,complete recovery
Fc1ccc([C@@H]2CCNC[C@H]2COc2ccc3c(c2)OCO3)cc1 [paroxetine],patients who became hypertensive,[2],40%
same,patients who became hypertensive,[2]; 6 months,60%
CN[C@H]1CC[C@@H](c2ccc(Cl)c(Cl)c2)c2ccccc21 [sertraline],patients who became hypertensive,[2],40%
same,patients who became hypertensive,[2]; 6 months,60%
